The subject of the test is CEM cells HIV-1 protection, formazan growth assay. The test is described as follows: NCI AIDS Antiviral Assay. The note with it: for IC50: measured here: growth of uninfected CEM cells. The method, boiled down:
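Human CEM cells, uninfected and HIV-1-infected, exposed to five drug concentrations; growth measured by soluble formazan assay and scored as percent protection from infection, with protecting compounds retested.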

The structures appear in SMILES notation. Calls of active or inactive are those of the source.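 Rule for the calls: active = compounds giving half or more protection of infected cells from virus-caused growth loss, again on retest; inactive = the rest.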 Where only a bound is given, the exact number is not on record here.

Regarding `CC1(C)CC(=O)C2=C(C1)Nc1ccc(Cl)cc1NC2c1cccc([N+](=O)[O-])c1` (configuration not stated), the EC50 is greater than 200 µM and the IC50 is 102 µM.
The like results for `CC(C)(C)OC(=O)N1CCCCC(CCCC#Cc2ccccc2)C1=O` (configuration not stated) were, in that order, greater than 38 µM and greater than 38 µM.
The like results for `COc1cccc(CN2CCCN(/N=C/c3c4c(O)c5c(O)c(C)c6c(c5c3O)C(=O)C(C)(O/C=C/C(OC)C(C)C(OC(C)=O)C(C)C(O)C(C)C(O)C(C)/C=C/C=C(/C)C(=O)N4)O6)CC2)c1` (configuration not stated) were, in that order, greater than 200 µM and 5.01 µM.
On the same counts, the results for `Brc1ccc2c(-c3csc(-c4c[nH]c5cc(Br)ccc45)n3)c[nH]c2c1` are greater than 200 µM and 52.5 µM.
With `S=C1SCCS1`, the EC50 was greater than 200 µM and the IC50 was greater than 200 µM.
On to `O=c1[nH]c2ncsc2c(=O)n1OS(=O)(=O)c1ccccc1`, for which the EC50 is greater than 200 µM and the IC50 was 12.9 µM.
On the same counts, the results for `Cc1ccc(C(=O)N(C(C)C)C(C)C)cc1N=NN(C)C` are greater than 123 µM and 97.7 µM.
The like results for `CCCO/N=[N+](\[O-])N(CC)CC` were, in that order, greater than 8910 µM and greater than 8910 µM.
On to `[O-]c1c2c(nn1-c1ccc(F)cc1)c1ccccc1c[n+]2Cc1ccccc1`, for which the outcome was inactive.
The same measure, in the same setting: next, `OCC1C2C=CC(O2)[C@H]1CO` (some centres not stated): “inactive”.
With `CCCCSc1cc(Cc2cc(C)ccc2O)c(O)c(Cc2cc(C)ccc2O)c1`, the EC50 is greater than 200 µM and the IC50 came out at 10 µM.
On the same counts, the results for `O=c1ccc2nc3cc(Cl)ccc3sc-2c1` are greater than 8.13 µM and 2.19 µM.
On the same counts, the results for `COc1ccc(NC(=O)/C(=C/N2C(=O)/C(=C/c3ccc(OC)c(OC)c3)NC2=S)C(C)=O)cc1` are greater than 200 µM and 23.4 µM.
For the molecule `Cc1cc2nn(C3CCCCO3)nc2cc1C` (configuration not stated), the EC50 was greater than 200 µM and the IC50 was greater than 200 µM.
With `COc1ccc(C(=C(I)c2ccccc2)c2ccc(OC)cc2)cc1`, the EC50 is greater than 200 µM and the IC50 is 182 µM.
The like results for `CC(C)(C)OC(=O)CC(NC(=O)OC(C)(C)C)C(=O)NC(C(=O)O)C(O)c1ccccc1` (configuration not stated) were, in that order, greater than 200 µM and 93.3 µM.
Turning to `O=c1[nH]c2ncsc2c(=O)n1O`, the EC50 is greater than 200 µM and the IC50 was 5.01 µM.
In the case of `Cc1c(C2Cc3ccccc3N2C(=O)/C=C\C(=O)O)c2ccccc2n1C` (configuration not stated), the EC50 is greater than 692 µM and the IC50 is 14.5 µM.
As to `CCOc1ccccc1N=NC1C(=O)N(C(=O)CC(=O)Nc2ccccc2C)N=C1C` (configuration not stated), the EC50 was greater than 200 µM and the IC50 is greater than 200 µM.
`CC#CC(O)(C(=O)OCCCN(C)C)C1CCCCC1` (configuration not stated): the EC50 is greater than 200 µM and the IC50 was greater than 200 µM.
`CCCCCCCCCCCC(O)=C1C(=O)CCCC1=O`: the EC50 was greater than 17.8 µM and the IC50 was greater than 17.8 µM.
Consider `Cc1cn2c(nc1=O)OC1C(O)C(CCl)OC12` (configuration not stated), for which the EC50 is greater than 200 µM and the IC50 was greater than 200 µM.
For the molecule `Nc1cccc(C(CC(=O)O)CC(=O)O)c1`, the EC50 is greater than 200 µM and the IC50 was greater than 200 µM.
On to `O=C(Nc1cccc(C(F)(F)F)c1)c1cc(Br)cc(Br)c1O`, for which the EC50 was greater than 200 µM and the IC50 worked out at 1.51 µM.
The like results for `NCCN(CCN(C(=O)Nc1ccccc1)c1ccccc1)C(=O)Nc1ccccc1` were, in that order, greater than 200 µM and 35.5 µM.
On the same counts, the results for `Clc1ccc(CSc2ccc3nncc(SCc4ccc(Cl)cc4Cl)c3c2)c(Cl)c1` are greater than 29.5 µM and greater than 29.5 µM.
Consider `CC1=CC2C(C=C1)S(=O)(=O)N1CC21c1ccccc1` (configuration not stated), for which the result was inactive.
As for `C=C(C)C1Cc2c(cc3c(c2O)c(=O)c2ccccc2n3C)O1` (configuration not stated), the EC50 was greater than 200 µM and the IC50 came to 1.17 µM.
On the same counts, the results for `CC(=O)N/N=C1/CC[C@@]2(C)C(=CC[C@H]3C4CCC(C(C)CCCC(C)C)[C@@]4(C)CCC32)C1(C)C` (some centres not stated) are greater than 200 µM and 61.7 µM.
The like results for `CCC1c2ccccc2[C@H]2C(c3ccccc3)=NN(c3ccccc3)[C@H]2N1CC` (some centres not stated) were, in that order, greater than 200 µM and 56.2 µM.
On the same counts, the results for `Cc1cc(N(CCC#N)CCC#N)ccc1/C=C1N=C(/C=C\c2ccccc2)N(c2ccc(C(=O)O)cc2)C\1=O` are greater than 13.5 µM and greater than 13.5 µM.
`c1ccc2sc(SSSc3nc4ccccc4s3)nc2c1`: the EC50 was 14.1 µM and the IC50 came to 34.7 µM.
The like results for `C[C@H]1[C@H]2CC[C@H]3[C@@H]4CC(=O)[C@]56C[C@@H]5CC[C@]6(C)[C@H]4CC[C@]23CN1C` were, in that order, greater than 91.2 µM and greater than 91.2 µM.
On to `COc1ccc(/C(=N/O)c2ccccc2-c2nc3ccccc3c(=O)n2Nc2ccc([N+](=O)[O-])cc2[N+](=O)[O-])cc1C`, for which the EC50 is greater than 200 µM and the IC50 came to 43.7 µM.
The like results for `S=C1Cc2cc3ccccc3nc2-c2ccccc2N1` were, in that order, greater than 100 µM and greater than 100 µM.
On the same counts, the results for `CC(=O)C[P+](c1ccccc1)(c1ccccc1)c1ccccc1` are greater than 200 µM and 61.7 µM.
Regarding `CN(C)CCCNC(=O)c1cc(NC(=O)c2cc(NC(=O)c3cc(NC(=O)c4cncc(C(=O)Nc5cc(C(=O)Nc6cc(C(=O)Nc7cc(C(=O)NCCCN(C)C)n(C)c7)n(C)c6)n(C)c5)c4)cn3C)cn2C)cn1C`, the EC50 is greater than 100 µM and the IC50 was greater than 100 µM.
With `CCCCCCCCCCCCCCCC(=O)Nc1ccn(C2CSC(COP(=O)(O)OC3CC(n4ccc(NC(=O)CCCCCCCCCCCCCCC)nc4=O)OC3CO)O2)c(=O)n1` (configuration not stated), the EC50 was 9.55 µM and the IC50 was greater than 200 µM.
The like results for `CC(=O)C1(N=Nc2ccc(S(=O)(=O)Nc3nccc(C)n3)cc2)CCOC1=O` (configuration not stated) were, in that order, greater than 200 µM and greater than 200 µM.
The like results for `O=c1[nH]n(CCc2ccccn2)c(=O)c2ccccc12` were, in that order, greater than 200 µM and greater than 200 µM.
On the same counts, the results for `CCOP(=O)(OCC)/C(=C/NC(=S)c1cccnc1)C(=O)OC` are greater than 200 µM and 34.7 µM.
With `O=c1c2cccnc2[nH]c2ccc3scnc3c12`, the EC50 was greater than 200 µM and the IC50 is greater than 200 µM.
On to `C=CCCCCC1CCC2CCC(CCCCC=C)N12` (configuration not stated), for which the EC50 is greater than 95.5 µM and the IC50 is 79.4 µM.
The like results for `O=C(NCCN1CCOCC1)c1cn2c(ccc3sc4ccccc4c(=O)c32)n1` were, in that order, greater than 200 µM and 3.55 µM.
In the case of `S=C(Cc1ccc2c(c1)Sc1ccccc1O2)N1CCOCC1`, the EC50 was greater than 200 µM and the concentration for half-maximal inhibition (IC50) was 27.5 µM.
With `CCOC(=O)/C(C#N)=C/c1ccnc2ccccc12`, the EC50 was greater than 200 µM and the IC50 amounted to 3.8 µM.
Regarding `O=C(Cn1ccnc1[N+](=O)[O-])NCc1ccccc1`, the result was inactive.
Regarding `CC(C)c1c(Cc2ccccc2)n(COCCC[Se]c2ccccc2)c(=O)[nH]c1=O`, the EC50 is 0.0501 µM and the IC50 amounted to 1.38 µM.
The like results for `CN(C)c1ccc(/C=C/c2cc[n+](C)c3ccccc23)cc1` were, in that order, greater than 200 µM and 0.501 µM.
As to `CC1(c2ccc(F)cc2)OC(=O)c2c1ccc1ccccc21` (configuration not stated), the result was inactive.
On to `CC(Oc1ccc(OCC2CCCCC2)cc1)C(=O)N(CCO)CCO` (configuration not stated), for which the EC50 is greater than 692 µM and the IC50 came out at 44.7 µM.
On the same counts, the results for `CC(C)CCCC(C)C1CCC2C3CCC(=O)C(C)(CCCNCCO)C3CCC12C` (configuration not stated) are greater than 20 µM and 2.88 µM.
In the case of `CC(=O)OC1CCn2nnc(CO[Si](C)(C)C(C)(C)C)c21` (configuration not stated), the result was inactive.
As to `COc1ccccc1NC(=O)C1=C(C)NC(C)=C(C(=O)Nc2ccccc2OC)C1C1=CC=COC1`, the EC50 was greater than 14.8 µM and the IC50 is greater than 14.8 µM.
With `CC(=O)Oc1ccc2c(c1)c1c(=O)oc(N(C)C)nc1n2Cc1ccccc1`, the EC50 is greater than 200 µM and the IC50 was determined as 120 µM.
As for `CC1C2(C)OCC(C#N)(C(=N)O2)C1(C#N)C#N` (configuration not stated), the EC50 was greater than 200 µM and the IC50 amounted to 20.9 µM.
The like results for `O=C(NCCCl)Nc1ccccn1` were, in that order, greater than 200 µM and greater than 200 µM.
Take `Oc1cc(Cl)c(Cl)cc1Cl`: the result was inactive.
For `CC(C)(C)OC(=O)[C@@H]1CCC(=S)N1Cc1ccccc1`, the EC50 is greater than 200 µM and the IC50 was found to be 135 µM.
With `O=C(CC(=O)N1CCN(c2ccccn2)CC1)N1CCN(c2ccccn2)CC1`, the EC50 was greater than 97.7 µM and the IC50 is greater than 97.7 µM.
With `COc1ccc(-c2cc(=O)c3c(OC)c(OC)c(OC)c(OC)c3o2)c(OC)c1`, the EC50 was greater than 200 µM and the IC50 is 20.4 µM.
On the same counts, the results for `CC(C)(C)c1cc(C(O)(C(=O)O)C(=O)O)cc(C(C)(C)C)c1O` are greater than 200 µM and greater than 200 µM.
As for `CC1C2CC(C(S(=O)(=O)O)C2=O)C1(C)C` (configuration not stated), the EC50 was greater than 1000 µM and the IC50 is greater than 1000 µM.
With `O=S(=O)(O)CO`, the EC50 is greater than 200 µM and the IC50 turned out to be 151 µM.
On the same counts, the results for `Nc1cc2cc([N+](=O)[O-])ccc2oc1=O` are greater than 178 µM and greater than 178 µM.
The like results for `O=C(CCl)Nc1ccc(C(=O)N/N=C/c2ccc(Cl)cc2)cc1` were, in that order, greater than 200 µM and 2.75 µM.
On the same counts, the results for `c1ccc2c(c1)N=C(c1ccc3ccccc3c1)CC(c1cccc3ccccc13)S2` (configuration not stated) are greater than 2.51 µM and greater than 2.51 µM.
For `CC1=NNC(=O)C1C1CC(c2c[nH]c3ccccc23)=NN=C1Cl` (configuration not stated), the EC50 was greater than 200 µM and the IC50 was 93.3 µM.
`CCC(CC)(CC(=O)O)CC(=O)O`: the outcome was inactive.
`Cc1cccc(/C=N/NC(=S)N(C)CCc2ccccn2)n1`: the EC50 was greater than 2 µM and the IC50 stood at 0.0331 µM.
For the molecule `CC(=O)n1cc(CC(C)O)c(=O)[nH]c1=O` (configuration not stated), the EC50 was greater than 1170 µM and the IC50 was greater than 1170 µM.
In the case of `O=C(Cc1ccc(OCc2cccc(Cl)c2)cc1)NO`, the EC50 was greater than 200 µM and the IC50 came to 29.5 µM.
As for `CCCCCCCCCCCCCCCCCC[N+](C)(C)Cc1ccc(C[N+](C)(C)CCCCCCCCCCCCCCCCCC)cc1`, the outcome was inactive.
